SMILES strings stand for the structures.

This assay deals with caspase-3. Put plainly: Caspase3 assay using an NES-protease cleavage-NLS fusion protein (EYFP translocation). Type of assay: cell-based. The settings on record: 3T3 cells transiently transfected with pCaspase3-sensor Vector; staurosporin 700 nM; detected 4 hours post induction; untreated cells: EYFP in the cytoplasm. The source says:
A construct was generated that includes a nucleotide sequence encoding a fusion protein including, in order from amino to carboxyl terminus, an NES of MAP-kinase-kinase (NLVDLQKKLEELELDEQQ; SEQ ID NO: 23); a recognition site for caspase-3 (DEVD; SEQ ID NO: 22) bordered by a stretch of amino acids found in the cleavage site of the endogenous caspase-3 substrate poly (ADP-ribose) polymerase (PARP; Nicholson et al. (1995) Nature 376:37-43; and Tewari et al. (1995) Cell 81:801-809), such that the cleavage recognition site has the sequence KRKGDEVDGVDF (SEQ ID NO: 24); an enhanced yellow fluorescent protein (EYFP); and a three tandem repeat of the NLS from simian virus large T antigen. In this construct, the NES is dominant over the NLS.
The construct was transfected into mammalian cells. Specifically, 3T3 cells were grown on coverslips, transiently transfected with the pCaspase3-sensor Vector which is encodes the above described fusion protein and is further illustrated in Clontechniques (April, 2002), and grown for 24 hours. Apoptosis was induced using staurosporin (700 nM) and caspase-3 activity was detected 4 hours post induction. Cells were fixed with 3% paraformaldehyde and photomicrographs were taken using a Zeiss microscope.

On to `CN[C@@H]1C[C@H]2O[C@@](C)([C@@H]1OC)n1c3ccccc3c3c4c(c5c6ccccc6n2c5c31)C(=O)NC4` [staurosporin], for which the “caspase-3 activity read out as subcellular location of EYFP” value is given as “the EYFP was detected in the nucleus”.

The values above are taken from patent publication US20030049712A1, “Method of detecting protease activity in a cell” (priority 2001, published 2003).
